Experiment [1] has as its system L1210. Description: Compound was evaluated for influx of L1210 cells. It is filed as functional, cell-based. The settings on record: Mus musculus.
Experiment [2] deals with L1210. Description: In vitro inhibition of L1210 cell growth. It is filed as functional, cell-based. The settings on record: Mus musculus.

pIC50: −log10 of the molar value.

With `CCC(Cc1cnc2nc(N)nc(N)c2n1)c1ccc(C(=O)NC(CCC(=O)O)C(=O)O)cc1` (centres undefined), the Km in the experiment on L1210 [1] worked out at 1.08 µM. Further, the negative-log IC50 (pIC50) with L1210 [2] is 7.19.

On to `CN(Cc1cnc2nc(N)nc(N)c2n1)c1ccc(C(=O)N[C@@H](CCC(=O)O)C(=O)O)cc1` [METHOTREXATE], for which, in the experiment with L1210 [1], the Michaelis constant (Km) was 3.51 µM. The negative logarithm of the IC50 (pIC50) with L1210 [2] was 8.47.

The term Km denotes the concentration of substrate that gives half-maximal velocity. One may read the pIC50 as −log10 of the IC50, conventionally taken in molar units. A lower pIC50 goes with a large IC50.

Values taken from ChEMBL document CHEMBL1125517, “Synthesis and antifolate evaluation of 10-ethyl-5-methyl-5,10- dideazaaminopterin and an alternative synthesis of 10-ethyl-10- deazaaminopterin (edatrexate)” (J Med Chem, 1992).
